Laboratory results from patent US8193189B2, “Quinoxaline derivatives as tyrosine kinase activity inhibitors” (Novartis AG, priority 2007, dated 2012).

What was measured:
[1] = target: T1, GST-JAK1(866-1154) (Homo sapiens, UniProt P23458); experiment: EPK JAK-family kinases profiling assay (Caliper mobility shift), JAK1; type: biochemical; conditions: ATP 40 μM, 50 nM kinase
T1 construct: GST-JAK1(866-1154); made in house
Source text: (§1) All four kinases of the JAK-family kinases were used as purified recombinant GST-fusion proteins, containing the active kinase domains. GST-JAK1(866-1154), GST-JAK3(811-1124), and GST-TYK2(888-1187) were expressed and purified by affinity chromatography at the EPK biology unit. GST-JAK2(808-1132) was purchased from Invitrogen (Carlsbad, USA, #4288).
(§2) The kinase assays were based on the Caliper mobility shift assay using the LabChip 3000 systems. This technology is similar to capillary electrophoresis and uses charge driven separation of substrate and product in a microfluidic chip.
(§3) All kinase reactions were performed in 384 well microtiter plates in a total reaction volume of 18 μl. The assay plates were prepared with 0.1 μl per well of test compound in the appropriate test concentration, as described under the section “preparation of compound dilutions”. The reactions were started by combining 9 μl of substrate mix (consisting of peptide and ATP) with 9 μl of kinase dilution. The reactions were incubated for 60 minutes at 30° C. and stopped by adding 70 μl of stop buffer (100 mM Hepes, 5% DMSO, 0.1% Coating reagent, 10 mM EDTA, 0.015% Brij 35).
(§4) Fluorescently labeled synthetic peptides were used as substrates in all reactions. […] Specific assay conditions are described in Table 1:
(§5) The terminated reactions were transferred to the Caliper LabChip 3000 reader and the turnover of each reaction was measured by determining the substrate/product ratio.
(§6) Test compounds were dissolved in DMSO (10 mM) and transferred into 1.4 mL flat bottom or V-shaped Matrix tubes carrying a unique 2D matrix chip by individual compound hubs. The numbers of these chips were distinctively linked to the individual compound identification numbers. The stock solutions were stored at −20° C. if not used immediately. For the test procedure the vials were defrosted and identified by a scanner whereby a working sheet was generated that guided the subsequent working steps.
(§7) Compound dilutions were made in 96 well plates. This format enabled the assay of maximally 40 individual test compounds at 8 concentrations (single points) including 4 reference compounds. The dilution protocol included the production of pre-dilution plates, master plates and assay plates:
(§8) Pre-dilution plates: 96 polypropylene well plates were used as pre-dilution plates. A total of 4 pre-dilution plates were prepared including 10 test compounds each on the plate positions A1-A10, one standard compound at A11 and one DMSO control at A12. All dilution steps were done on a HamiltonSTAR robot.
(§9) Master plates: 100 μL of individual compound dilutions including standard compound and controls of the 4 “pre-dilution plates” were transferred into a 384 “master plate” including the following concentrations 1′820, 564, 182, 54.6, 18.2, 5.46, 1.82 and 0.546 μM, respectively in 90% of DMSO.
(§10) Assay plates: Identical assay plates were then prepared by pipetting 100 nL each of compound dilutions of the master plates into 384-well “assay plates”. […] The preparation of the master plates were handled by the Matrix PlateMate Plus robot and replication of assay plates by the HummingBird robot.

[2] = test system: JAK/STAT pathway (JAK1/JAK2-dependent nuclear translocation of STAT1-GFP); experiment: Inhibition of the JAK/STAT pathway: IFN-γ stimulated nuclear translocation of STAT1-GFP in HT1080 fibrosarcoma cells; type: cell-based; conditions: Homo sapiens, HT-1080; HT1080 STAT1-GFP cells, 100 ng/ml IFN-γ 2 hours, compound added 30 min before; read-out: STAT1translo IC50
Source text: The medium-throughput (96-well format), robust and reproducible cellular assay can be routinely used to assess the functional activation of Janus Kinases (JAKs), based on the nuclear translocation of their substrate, Signal Transducer and Activator of Transcription (STAT). Nuclear translocation can be monitored in HT1080 fibrosarcoma cells stably transfected with STAT1 fused to Green Fluorescence Protein (GFP). Stimulation with interferon-γ (IFN-γ) results in JAK1/JAK2-dependent nuclear translocation of STAT1-GFP that can be quantified using the Cellomics Cyto/NucTrans software package. This assay may be used to provide an assessment of the nuclear-cytoplasmic differential (NCD) of GFP-STAT1 using Hoechst dye to define the boundaries of the nucleus.
Compounds can be dissolved in DMSO to a final stock concentration of 10 mM and stored as aliquots at 4° C. Compounds may be pre-diluted in 100% DMSO at 10 mM, 3 mM 1 mM, 0.3 mM, 0.1 mM, 0.03 mM, 0.01 mM and 0.003 mM. Subsequently, compounds may be diluted in medium and added in 50 μl to the cells. The final compound concentrations tested may be 10 μM, 3 μM 1 μM, 0.3 μM, 0.1 μM, 0.03 μM, 0.01 μM and 0.003 μM and the final DMSO concentration can be 0.1%.
The plates may then be washed once in PBS, and 200 μl PBS finally added per well. The plates, being finally covered with a black adhesive, may be either read directly or stored at 4° C. for later imaging. Where appropriate, the compounds may be added 30 min before stimulation with IFN-γ.
The plates can be read on a Cellomics® ArrayscanII automated fluorescence microscope plate reader equipped with a Mercury-Xenon white light illumination source and a Zeiss Axiovert inverted microscope, using the XF100 dichroic/emission filter cube and matching excitation filters, 10× magnification, and a 0.3 numerical aperture objective. Image acquisition and analysis can be performed using a customized protocol based on the ‘NuclearTranslocation’ Bioapplication (for details, see Appendices). For each well, multiple images (fields) can be acquired until a minimum of 1000 cells are counted using two 2 channels: Channel 1 (Hoechst)=focus+nuclear mask, Channel 2 (GFP)=signal quantification in mask areas as outlined below.
Nuclei may be first identified based on the Hoechst staining and a mask generated for each nucleus that then serves as a template to generate a circle (eroded inwards by 1 pixel) and a 3 pixel-wide collar-like ring (off-set outwards by 1 pixel), in which the nuclear and cytoplasmic intensity of GFP, respectively, are quantified in the corresponding channel. High content analysis yields numerous measurements per cell and the GPF intensity differential between the nuclear and the cytoplasmic masks may be chosen as a measure of sub-cellular GFP-STAT1 relocation. The resulting values may be averaged for all cells in the well to return a single measurement plus standard deviation.

[3] = target: T2, GST-JAK2(808-1132) (Homo sapiens, UniProt O60674); experiment: EPK JAK-family kinases profiling assay (Caliper mobility shift), JAK2; type: biochemical; conditions: ATP 20 μM, 1.8 nM kinase
T2 construct: GST-JAK2(808-1132); purchased Invitrogen (Carlsbad, USA) #4288
T2 sequence (O60674 808-1132): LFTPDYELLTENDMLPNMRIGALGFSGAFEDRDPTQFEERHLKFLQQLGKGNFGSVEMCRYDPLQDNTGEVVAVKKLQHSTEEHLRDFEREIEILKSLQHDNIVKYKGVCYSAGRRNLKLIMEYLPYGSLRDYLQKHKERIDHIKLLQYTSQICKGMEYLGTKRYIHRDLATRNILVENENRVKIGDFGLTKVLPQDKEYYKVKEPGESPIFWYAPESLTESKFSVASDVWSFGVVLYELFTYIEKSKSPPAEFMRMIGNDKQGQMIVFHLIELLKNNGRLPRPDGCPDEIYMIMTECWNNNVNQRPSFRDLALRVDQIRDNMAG
Source text: as §1, §2, §3, §4, §5, §6, §7, §8, §9, §10

[4] = target: T3, GST-JAK3(811-1124) (Homo sapiens, UniProt P52333); experiment: EPK JAK-family kinases profiling assay (Caliper mobility shift), JAK3; type: biochemical; conditions: ATP 80 μM, 6 nM kinase
T3 construct: GST-JAK3(811-1124); made in house
T3 sequence (P52333 811-1124): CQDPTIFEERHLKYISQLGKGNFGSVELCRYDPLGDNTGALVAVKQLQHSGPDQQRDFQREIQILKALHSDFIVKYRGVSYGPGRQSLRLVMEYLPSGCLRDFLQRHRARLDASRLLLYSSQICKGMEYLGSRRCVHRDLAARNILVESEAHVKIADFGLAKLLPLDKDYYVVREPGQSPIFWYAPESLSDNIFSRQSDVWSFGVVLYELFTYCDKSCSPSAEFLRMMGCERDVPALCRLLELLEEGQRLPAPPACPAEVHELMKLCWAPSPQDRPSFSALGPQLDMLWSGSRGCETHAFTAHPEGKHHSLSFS
Source text: as §1, §2, §3, §4, §5, §6, §7, §8, §9, §10

T1 sequence (P23458 866-1154): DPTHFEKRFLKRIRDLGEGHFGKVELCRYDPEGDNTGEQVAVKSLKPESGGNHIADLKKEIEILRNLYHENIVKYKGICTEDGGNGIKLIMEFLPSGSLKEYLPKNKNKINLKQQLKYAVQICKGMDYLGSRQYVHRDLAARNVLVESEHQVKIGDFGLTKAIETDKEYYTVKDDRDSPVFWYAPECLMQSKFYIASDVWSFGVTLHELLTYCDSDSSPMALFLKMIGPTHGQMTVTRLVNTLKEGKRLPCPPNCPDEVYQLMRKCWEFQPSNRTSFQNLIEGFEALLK

| IC50 [1] [nM] | IC50 [2] [nM] | IC50 [3] [nM] | IC50 [4] [nM] | SMILES |
| --- | --- | --- | --- | --- |
| 150 | 471 | 12 | 570 | Cc1cc(-c2cnc3cccc(-c4ccc(CN5CCOCC5)c(F)c4)c3n2)ccc1C(=O)N(C)C [Example 56, 4-[8-(3-Fluoro-4-morpholin-4-ylmethyl-phenyl)-quinoxalin-2-yl]-2,N,N-trimethyl-benzamide] |
| 80 | 163 | < 3 | 170 | Cc1cc(-c2cccc3ncc(-c4ccc(C(=O)N5CCOCC5)c(C)c4)nc23)ccc1CN1CCS(=O)(=O)CC1 [Example 57, (4-{8-[4-(1,1-Dioxido-thiomorpholin-4-ylmethyl)-3-methyl-phenyl]-quinoxalin-2-yl}-2-methyl-phenyl)-morpholin-4-yl-methanone] |
| 165 | 235 | 15 | 1400 | Cc1cc(-c2cnc3cccc(-c4ccc(CN5CCS(=O)(=O)CC5)c(Cl)c4)c3n2)ccc1C(=O)N1CCOCC1 [Example 61, (4-{8-[3-Chloro-4-(1,1-dioxido-thiomorpholin-4-ylmethyl)-phenyl]-quinoxalin-2-yl}-2-methyl-phenyl)-morpholin-4-yl-methanone] |
| 44.5 | 82 | 5.7 | 330 | Cc1cc(-c2cnc3cccc(-c4ccc(CN5CCS(=O)(=O)CC5)c(F)c4)c3n2)ccc1C(=O)N1CCOCC1 [Example 62, (4-{8-[4-(1,1-Dioxido-thiomorpholin-4-ylmethyl)-3-fluoro-phenyl]-quinoxalin-2-yl}-2-methyl-phenyl)-morpholin-4-yl-methanone] |
| 240 | 2180 | 15.5 | 860 | Cc1cc(-c2cnc3cccc(-c4ccc(CN5CCOCC5)c(F)c4)c3n2)ccc1C(=O)N1CCCC1 [Example 65, {4-[8-(3-Fluoro-4-morpholin-4-ylmethyl-phenyl)-quinoxalin-2-yl]-2-methyl-phenyl}-pyrrolidin-1-yl-methanone] |

More lines, now with the values behind:

| SMILES | IC50 [1] [nM] | IC50 [2] [nM] | IC50 [3] [nM] | IC50 [4] [nM] |
| --- | --- | --- | --- | --- |
| Cc1cc(-c2cnc3cccc(-c4ccc(CN5CCS(=O)(=O)CC5)cc4)c3n2)ccc1C(=O)N1CCN(C)CC1 [Example 40, (4-{8-[4-(1,1-Dioxido-thiomorpholin-4-ylmethyl)-phenyl]-quinoxalin-2-yl}-2-methyl-phenyl)-(4-methyl-piperazin-1-yl)-methanone] | 78.4 | 160 | 7.3 | 627 |
| Cc1cc(-c2cnc3cccc(-c4ccc(CC(=O)N5CCOCC5)cc4)c3n2)ccc1C(=O)N1CCN(C)CC1 [Example 41, 2-(4-{3-[3-Methyl-4-(4-methyl-piperazine-1-carbonyl)-phenyl]-quinoxalin-5-yl}-phenyl)-1-morpholin-4-yl-ethanone] | 130 | 346 | 6.3 | 640 |
| O=C(Cc1ccc(-c2cccc3ncc(-c4ccc(N5CCOCC5)cc4)nc23)cc1)N1CCOCC1 [Example 45, 1-Morpholin-4-yl-2-{4-[3-(4-morpholin-4-yl-phenyl)-quinoxalin-5-yl]-phenyl}-ethanone] | 190 | 2400 | 30 | 2200 |
| Cc1cc(-c2cccc3ncc(-c4ccc(N5CCOCC5)cc4)nc23)ccc1C(=O)N1CCOCC1 [Example 46, {2-Methyl-4-[3-(4-morpholin-4-yl-phenyl)-quinoxalin-5-yl]-phenyl}-morpholin-4-yl-methanone] | 110 | 2820 | 20 | 1600 |
| COCCOc1ccc(-c2cnc3cccc(-c4ccc(CN5CCS(=O)(=O)CC5)c(F)c4)c3n2)cc1OC [Example 48, 8-[4-(1,1-Dioxido-thiomorpholin-4-ylmethyl)-3-fluoro-phenyl]-2-[3-methoxy-4-(2-methoxy-ethoxy)-phenyl]-quinoxaline] | 9.9 | 150 | < 3 | 77 |
| COCCOc1ccc(-c2cnc3cccc(-c4ccc(CC(=O)N5CCOCC5)c(F)c4)c3n2)cc1OC [Example 49, 2-(2-Fluoro-4-{3-[3-methoxy-4-(2-methoxy-ethoxy)-phenyl]-quinoxalin-5-yl}-phenyl)-1-morpholin-4-yl-ethanone] | 260 | 1220 | 38 | 4400 |
| Cc1cc(-c2cnc3cccc(-c4ccc(CN5CCS(=O)(=O)CC5)c(F)c4)c3n2)ccc1C(=O)N(C)C [Example 54, 4-{8-[4-(1,1-Dioxido-thiomorpholin-4-ylmethyl)-3-fluoro-phenyl]-quinoxalin-2-yl}-2,N,N-trimethyl-benzamide] | 17 | 140 | < 3 | 65 |
| Cc1cc(-c2cnc3cccc(-c4ccc(CN5CCOCC5)c(C(F)(F)F)c4)c3n2)ccc1C(=O)N(C)C [Example 55, 2,N,N-Trimethyl-4-[8-(4-morpholin-4-ylmethyl-3-trifluoromethyl-phenyl)-quinoxalin-2-yl]-benzamide] | 1700 | 3140 | 90 | 4200 |
| Cc1cc(-c2cnc3cccc(-c4ccc(CN5CCOCC5)c(F)c4)c3n2)ccc1C(=O)N1CCOCC1 [Example 58, {4-[8-(3-Fluoro-4-morpholin-4-ylmethyl-phenyl)-quinoxalin-2-yl]-2-methyl-phenyl}-morpholin-4-yl-methanone] | 90 | 220 | 11 | 320 |
| Cc1cc(-c2cnc3cccc(-c4cc(F)c(CN5CCOCC5)c(F)c4)c3n2)ccc1C(=O)N1CCOCC1 [Example 59, {4-[8-(3,5-Difluoro-4-morpholin-4-ylmethyl-phenyl)-quinoxalin-2-yl]-2-methyl-phenyl}-morpholin-4-yl-methanone] | 520 | 635 | 20 | 1950 |
